Data published in patent publication US20170121295A1, “POLYCYCLIC LPA1 ANTAGONIST AND USES THEREOF” (AMIRA PHARMACEUTICALS, INC., priority 2010, published 2017).

Tests used:
[1] = system: human A2058 melanoma cells; test: LPA1 Chemotaxis Assay; assay type: cell-based; conditions: 100 nM LPA, read-out: IC50, LPA-driven chemotaxis
Procedure: Chemotaxis of the A2058 human melanoma cells was measured using the Neuroprobe ChemoTx® System plates (8 μm pore size, 5.7 mm diameter sites). The filter sites were coated with 0.001% fibronectin (Sigma) in 20 mM Hepes, pH 7.4 and allowed to dry. A2058 cells were serum-starved for 24 hours, then harvested with Cell Stripper and resuspended in DMEM containing 0.1% fatty-acid-free bovine serum albumin (BSA) to a concentration of 1×10^6/ml. Cells were mixed with an equal volume of test compound (2×) in DMEM containing 0.1% fatty-acid-free BSA and incubated at 37° C. for 15 minutes. LPA (100 nM in DMEM containing 0.1% fatty-acid-free BSA) or vehicle was added to each well of the lower chamber and 50 μl of the cell suspension/test compound mix was applied to the upper portion of the ChemoTx plate. Plates were incubated at 37° C. for three hours and then the cells removed from the upper portion by rinsing with PBS and scraping. The filter was dried then stained with HEMA 3 Staining System (Fisher Scientific). The absorbance of the filter was read at 590 nm and IC50s were determined using Symyx Assay Explorer.

human LPA2 = biological target: T1, human LPA2 (Homo sapiens, UniProt Q9HBW0); test: LPA2 Calcium Flux Assay; assay type: cell-based; conditions: 100 nM LPA; read-out: Ca Flux IC50 LPA2
T1 construct: endogenous in cells; host or cells: BT-20 human breast cancer cells
Procedure: A vector containing the human LPA2 receptor cDNA was obtained from the Missouri S&T cDNA Resource Center (www.cdna.org). The full-length cDNA fragment for human LPA2 was obtained by PCR from the vector. The nucleotide sequence of the cloned human LPA2 was determined by sequencing and confirmed to be identical to the published human LPA2 sequence (NCBI accession number NM_004720). The cDNA was cloned into the pCDNA3.1 expression plasmid and transfected into B103 cells (Invitrogen Corp., USA) by seeding cells in a 96-well poly-D-lysine coated plate at 30,000-35,000 cells per well together with 0.2 μl lipofectamine 2000 and 0.2 μg of the LPA2 expression vector. Cells were cultured overnight in complete media before being assayed for LPA-induced Ca-influx.
BT-20 human breast cancer cells are seeded at 25,000-35,000 cells per well in 150 μl complete media on Poly-D-Lysine coated black-wall clear-bottom plates. Following an overnight culture, cells are washed once with PBS then serum starved for 4-6 hours prior to the assay. […] Cells are the stimulated by the addition of 100 nM LPA and intracellular Ca^2+ measured using the Flexstation 3 (Molecular Devices). IC50s are determined using Symyx Assay Explorer analysis of drug titration curves.

[2] = Thermodynamic aqueous solubility; assay type: physicochemical; conditions: water, equilibrated at 25° C. for 24 hours
Procedure: Aqueous solubility was determined by suspending sufficient compound in water to give a maximum final concentration of ≧10 mg·ml−1 of the parent free-form of the compound. The suspension was equilibrated at 25° C. for 24 hours then the pH was measured. The suspension was then filtered through a glass fiber C filter into a 96 well plate unless stated otherwise. The filtrate was then diluted by a factor of 101. Quantification was by HPLC with reference to a standard solution of approximately 0.25 mg·ml^−1 in DMSO. Different volumes of the standard, diluted and undiluted sample solutions were injected. The solubility was calculated using the peak areas determined by integration of the peak found at the same retention time as the principal peak in the standard injection.
Analysis was performed on an Agilent HP1100 series system equipped with a diode array detector and using ChemStation software vB.02.01-SR1.

[3] = Pharmacokinetics in Male Beagle Dogs; assay type: in vivo; conditions: free acid dosed orally at 5 mg/kg
Procedure: The pharmacokinetics of Compound 1 and Compound 2 was assessed in male Beagle dogs.
Dosing of male Beagle dogs (n=3) was performed. Compound 1 or Compound 2 was dosed intravenously at 2 mg/kg (fasted) and orally (fasted or non-fasted) at 5 mg/kg. In fasted animals, food was withheld a minimum of 12 hours prior to dosing and then returned 4 hours post-dose. Non-fasted animals were allowed to feed 1 hour prior to dosing ad libitum. Compound 2 capsules were given by oral gavage in the fasted state. Plasma samples were collected by Perry Scientific study personnel.
The capsules are noted in Table 25 below. Capsules were size 0 gelatin (Capsugel, Peapack, N.J.). Tablet formulations are noted in Example 24.
For the clinical drug product oral solution of active agent (1.67 mg/mL), sucralose (0.5% w/w) and cherry flavor (0.5% w/w) is added to the formulation as a sweetener and taste masking agent, respectively to a 0.5% methocel aqueous solution.
Blood samples (approximately 1 mL total blood) were taken from each dog at pre-dose, and an initial time of 5 or 15 min and then various time points up to 24 hours post-dose (10-11 samples per animal). Samples were collected on wet ice in tubes containing potassium EDTA. After each blood draw, the cannula was flushed with an equivalent volume of heparinized saline (0.1 mL at 40 units/mL). Plasma samples, prepared by centrifugation of whole blood, were stored frozen (−80° C.) prior to analysis.

LPA4 = LPA4 (Homo sapiens, UniProt Q99677); test: LPA4 Calcium Flux Assay; assay type: cell-based; conditions: read-out: Ca Flux IC50 LPA4
LPA5 = LPA5 (Homo sapiens, UniProt Q9H1C0); test: LPA5 Calcium Flux Assay; assay type: cell-based; conditions: read-out: Ca Flux IC50 LPA5
Sequence of LPA5 (Q9H1C0 whole entry, species assumed): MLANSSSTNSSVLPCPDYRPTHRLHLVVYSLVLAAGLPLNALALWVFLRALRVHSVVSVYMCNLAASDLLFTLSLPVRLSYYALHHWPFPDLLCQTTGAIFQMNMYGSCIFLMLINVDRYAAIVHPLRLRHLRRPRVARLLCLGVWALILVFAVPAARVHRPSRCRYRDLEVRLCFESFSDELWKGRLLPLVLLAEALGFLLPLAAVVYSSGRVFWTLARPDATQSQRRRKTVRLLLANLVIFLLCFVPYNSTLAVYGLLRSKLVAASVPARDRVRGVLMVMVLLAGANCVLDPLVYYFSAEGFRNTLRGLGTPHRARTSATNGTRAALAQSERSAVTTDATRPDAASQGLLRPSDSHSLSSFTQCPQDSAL

T1 sequence (Q9HBW0 whole entry): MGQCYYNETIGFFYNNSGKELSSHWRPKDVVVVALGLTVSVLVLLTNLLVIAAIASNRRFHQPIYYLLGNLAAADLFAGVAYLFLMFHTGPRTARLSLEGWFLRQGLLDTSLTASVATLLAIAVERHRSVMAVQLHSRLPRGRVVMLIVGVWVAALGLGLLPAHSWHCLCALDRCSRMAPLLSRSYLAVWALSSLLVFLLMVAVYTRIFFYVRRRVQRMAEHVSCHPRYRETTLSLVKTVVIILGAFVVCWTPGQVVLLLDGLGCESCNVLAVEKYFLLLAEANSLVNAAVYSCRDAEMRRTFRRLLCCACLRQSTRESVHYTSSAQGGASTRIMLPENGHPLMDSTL
Sequence of LPA4 (Q99677 whole entry, species assumed): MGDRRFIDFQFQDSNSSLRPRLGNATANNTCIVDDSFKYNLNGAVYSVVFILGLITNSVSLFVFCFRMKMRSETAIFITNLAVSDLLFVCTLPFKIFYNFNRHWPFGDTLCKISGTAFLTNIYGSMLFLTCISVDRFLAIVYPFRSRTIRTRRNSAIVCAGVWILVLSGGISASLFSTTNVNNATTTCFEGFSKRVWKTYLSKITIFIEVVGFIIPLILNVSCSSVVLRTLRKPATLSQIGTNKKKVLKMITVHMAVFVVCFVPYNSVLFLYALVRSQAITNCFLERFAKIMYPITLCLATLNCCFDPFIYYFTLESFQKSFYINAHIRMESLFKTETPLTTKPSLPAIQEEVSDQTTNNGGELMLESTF

With Cc1noc(-c2ccc(-c3ccc(C4(C(=O)O)CC4)cc3)cc2)c1NC(=O)O[C@H](C)c1ccccc1 [Compound 1, 1-{4′-[3-methyl-4-((R)-1-phenyl-ethoxycarbonylamino)-isoxazol-5-yl]-biphenyl-4-yl}-cyclopropanecarboxylic acid] the IC50 [1] was < 100 nM, the IC50 (human LPA2) was > 1000 nM and the solubility at 24 h ([2]; 25 °C, thermodynamic from solid, read-out: Solubility (mg/ml, free form equivalent)) was 0.028 mg/mL. For the same compound, the “Solubility (mg/ml, free form equivalent)” value ([2]; listed as free acid) was 0.031 mg/mL, the exposure [3] was “reduced exposure” and the bioavailability ([3]; male, Beagle, dog, plasma, po, 5 mg/kg, read-out: apparent oral bioavailability) was 19%. The IC50 (LPA4) was > 1000 nM and the IC50 (LPA5) was > 1000 nM.
